The record followed here is patent publication US9216968B2, “Heterocyclic derivative and pharmaceutical drug” (NIPPON SHINYAKU CO., LTD., priority 2011, dated 2015).

The structures appear in SMILES notation. Counter-ions that a name gives are not always drawn.

Experiment [1] has as its system A549 cells. The experiment can be described thus: Inhibition of PGE2 production in A549 cell (IL-1β stimulated). The note with it: Homo sapiens, A549, 24 h, IL-1β 5 ng/well, PGE2 in culture medium. The experiment is classed as cell-based, human. A digest of the protocol: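 A549 cells preincubated 60 min with compound in RPMI/3% FBS (final DMSO 0.10), then stimulated with IL-1β (5 ng/well) for 24 h at 37 °C. PGE2 measured by HTRF and PGF2α by EIA in medium; IC50 from inhibition relative to stimulated minus unstimulated production.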

In experiment [2] the target is human mPGES-1 (Homo sapiens (Human), UniProt O14684). The experiment can be described thus: mPGES-1 inhibiting activity (microsome fractions, PGE2 by HTRF). The note with it: microsomes from CHO-K1 cells transfected with human mPGES-1; PGH2 1 μM, 4° C., 60 seconds; read-out: mPGES-1 Inhibition IC50. The experiment is classed as biochemical. Summed up: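 PGE2 formation read by HTRF after 60 s at 4 °C with 1 μM PGH2 substrate, following 20 min compound preincubation (1% DMSO) with human mPGES-1 microsomes from transfected CHO-K1 cells. Buffer: potassium phosphate, reduced glutathione, pH 7.4; IC50 from activity relative to enzyme-free blank.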
In general terms: In TR-FRET formats the signal depends on donor and acceptor labels being close together.

Sequence of human mPGES-1 (O14684 whole entry): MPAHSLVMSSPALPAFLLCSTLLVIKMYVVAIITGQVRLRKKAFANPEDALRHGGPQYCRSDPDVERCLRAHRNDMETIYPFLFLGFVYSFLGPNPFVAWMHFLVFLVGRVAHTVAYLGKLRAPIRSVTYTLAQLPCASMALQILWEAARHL

The term IC50 denotes the concentration that inhibits the measured activity by half. As for `COCc1nc2c(C(=O)Nc3cccc(Cl)c3C)cc(NC(=O)c3cc(CCCOC(C)(C)C)ccc3Cl)cc2[nH]1` [Example 118, 6-({[5-(3-tert-Butoxypropyl)-2-chlorophenyl]carbonyl}amino)-N-(3-chloro-2-methylphenyl)-2-(methoxymethyl)-1H-benzimidazole-4-carboxamide hydrochloride], the IC50 was 0.0053 µM in experiment [1] and 0.0073 µM in experiment [2].

As to `Cc1c(Cl)cccc1NC(=O)c1cc(NC(=O)c2ccccc2C(F)(F)F)cc2[nH]c(N(CCO)CCO)nc12` [Example 144, 2-[Bis(2-hydroxyethyl)amino]-N-(3-chloro-2-methylphenyl)-6-({[2-(trifluoromethyl)phenyl]carbonyl}amino)-1H-benzimidazole-4-carboxamide hydrochloride], the IC50 is 2.99 µM in experiment [1] and 0.0097 µM in experiment [2].

With `Cc1ccc(NC(=O)c2cc(NC(=O)c3cc(Cl)ccc3Cl)cc3[nH]c(N(C)C)nc23)cc1Cl` [Example 207, N-(3-Chloro-4-methylphenyl)-6-{[(2,5-dichlorophenyl)carbonyl]amino}-2-(dimethylamino)-1H-benzimidazole-4-carboxamide hydrochloride], the results for the IC50 in experiment [1] and in experiment [2] were 0.0062 µM and 0.0036 µM, respectively.

As to `Cc1c(Cl)cccc1NC(=O)c1cc(NC(=O)c2cc(Cl)ccc2Cl)cc2[nH]c(C3CCCC3)nc12` [Example 125, N-(3-Chloro-2-methylphenyl)-2-cyclopentyl-6-{[(2,5-dichlorophenyl)carbonyl]amino}-1H-benzimidazole-4-carboxamide hydrochloride], the IC50 in experiment [1] came to 0.0569 µM; in experiment [2] it was 0.0256 µM.

As to `COCc1nc2c(C(=O)Nc3ccc(C)c(Cl)c3)cc(NC(=O)c3ccccc3C(F)(F)F)cc2[nH]1` [Example 32, N-(3-Chloro-4-methylphenyl)-2-(methoxymethyl)-6-({[2-(trifluoromethyl)phenyl]carbonyl}amino)-1H-benzimidazole-4-carboxamide hydrochloride], the IC50 in experiment [1] stood at 0.0717 µM; in experiment [2], 0.0052 µM.

Turning to `CCn1cnc2c(C(=O)NCc3ccccc3C(F)(F)F)cc(NC(=O)c3ccccc3C(F)(F)F)cc21` [Example 51, 1-Ethyl-N-[2-(trifluoromethyl)benzyl]-6-({[2-(trifluoromethyl)phenyl]carbonyl}amino)-1H-benzimidazole-4-carboxamide], the IC50 in experiment [1] is 0.33 µM; in experiment [2], 0.12 µM.

Consider `Cc1c(Cl)cccc1NC(=O)c1cc(NC(=O)c2ccccc2C(F)(F)F)cc2[nH]c(NCCN(C(C)C)C(C)C)nc12` [Example 155, N-(3-Chloro-2-methylphenyl)-2-{[2-(dipropan-2-ylamino)ethyl]amino}-6-({[2-(trifluoromethyl)phenyl]carbonyl}amino)-1H-benzimidazole-4-carboxamide hydrochloride], for which the IC50 in experiment [1] is 0.209 µM; in experiment [2] it was 0.101 µM.

For the compound `CN(C)c1nc2c(C(=O)Nc3ccc(C(C)(C)C)cc3)cc(NC(=O)c3ccccc3C(F)(F)F)cc2[nH]1` [Example 203, N-(4-tert-Butylphenyl)-2-(dimethylamino)-6-({[2-(trifluoromethyl)phenyl]carbonyl}amino)-1H-benzimidazole-4-carboxamide hydrochloride], the values for the half-maximal inhibitory concentration (IC50) in experiment [1] and in experiment [2] were 0.0052 µM and 0.0014 µM, respectively.

`COCc1nc2c(C(=O)NCc3ccccc3)cc(NC(=O)c3ccccc3C(F)(F)F)cc2[nH]1` [Example 217, N-Benzyl-2-(methoxymethyl)-6-({[2-(trifluoromethyl)phenyl]carbonyl}amino)-1H-benzimidazole-4-carboxamide hydrochloride]: the IC50 turned out to be 0.317 µM in experiment [1] and 0.0269 µM in experiment [2].

As to `COCc1nc2c(C(=O)Nc3nc4ccccc4o3)cc(NC(=O)c3ccccc3C(F)(F)F)cc2[nH]1` [Example 232, N-(1,3-Benzoxazol-2-yl)-2-(methoxymethyl)-6-({[2-(trifluoromethyl)phenyl]carbonyl}amino)-1H-benzimidazole-4-carboxamide hydrochloride], the figures for the IC50 in experiment [1] and in experiment [2] were 0.125 µM and 0.0077 µM, respectively.

With `Cc1c(Cl)cccc1NC(=O)c1cc(NC(=O)c2c(Cl)cccc2Cl)cc2[nH]c(N(C)C)nc12` [Example 183, N-(3-Chloro-2-methylphenyl)-6-{[(2,6-dichlorophenyl)carbonyl]amino}-2-(dimethylamino)-1H-benzimidazole-4-carboxamide hydrochloride], the figures for the IC50 in experiment [1] and in experiment [2] were 0.0061 µM and 0.0019 µM, respectively.

In the case of `COCCNc1nc2c(C(=O)Nc3cccc(Cl)c3C)cc(NC(=O)c3ccccc3C(F)(F)F)cc2[nH]1` [Example 136, N-(3-Chloro-2-methylphenyl)-2-[(2-methoxyethyl)amino]-6-({[2-(trifluoromethyl)phenyl]carbonyl}amino)-1H-benzimidazole-4-carboxamide hydrochloride], the IC50 in experiment [1] came to 0.0619 µM; in experiment [2] it was 0.0024 µM.

For `COCc1nc2c(C(=O)NCc3ncccc3C(F)(F)F)cc(NC(=O)c3ccccc3C(F)(F)F)cc2[nH]1` [Example 42, 2-(Methoxymethyl)-6-({[2-(trifluoromethyl)phenyl]carbonyl}amino)-N-{[3-(trifluoromethyl)pyridin-2-yl]methyl}-1H-benzimidazole-4-carboxamide dihydrochloride], the 50% inhibitory concentration (IC50) in experiment [1] amounted to 1.86 µM; in experiment [2] it was 0.0285 µM.

With `CCc1nc2c(C(=O)Nc3cccc(Cl)c3C)cc(NC(=O)c3ccccc3C(F)(F)F)cc2o1` [Example 54, N-(3-Chloro-2-methylphenyl)-2-ethyl-6-({[2-(trifluoromethyl)phenyl]carbonyl}amino)-1,3-benzoxazole-4-carboxamide], the IC50 in experiment [1] came out at 0.225 µM; in experiment [2] it was 0.0232 µM.

As to `Cc1c(Cl)cccc1NC(=O)c1cc(NC(=O)c2ccccc2C(F)(F)F)cc2[nH]c(N3CCCCC3)nc12` [Example 142, N-(3-Chloro-2-methylphenyl)-2-(piperidin-1-yl)-6-({[2-(trifluoromethyl)phenyl]carbonyl}amino)-1H-benzimidazole-4-carboxamide hydrochloride], the figures for the IC50 in experiment [1] and in experiment [2] were 0.0827 µM and 0.0004 µM, respectively.

As to `Cc1c(Cl)cccc1NC(=O)c1cc(NC(=O)c2ccccc2C(F)(F)F)cc2[nH]c(N3CCN(C)CC3)nc12` [Example 143, N-(3-Chloro-2-methylphenyl)-2-(4-methylpiperazin-1-yl)-6-({[2-(trifluoromethyl)phenyl]carbonyl}amino)-1H-benzimidazole-4-carboxamide dihydrochloride], the IC50 turned out to be 0.0875 µM in experiment [1] and 0.0053 µM in experiment [2].

Take `COCCc1nc2c(C(=O)Nc3cccc(Cl)c3C)cc(NC(=O)c3ccccc3C(F)(F)F)cc2[nH]1` [Example 81, N-(3-Chloro-2-methylphenyl)-2-(2-methoxyethyl)-6-({[2-(trifluoromethyl)phenyl]carbonyl}amino)-1H-benzimidazole-4-carboxamide hydrochloride]: the figures for the IC50 in experiment [1] and in experiment [2] were 0.405 µM and 0.005 µM, respectively.

With `Cc1c(Cl)cccc1NC(=O)c1cc(NC(=O)c2ccccc2C(F)(F)F)cc2[nH]c(NCCCN(C)C)nc12` [Example 153, N-(3-Chloro-2-methylphenyl)-2-{[3-(dimethylamino)propyl]amino}-6-({[2-(trifluoromethyl)phenyl]carbonyl}amino)-1H-benzimidazole-4-carboxamide hydrochloride], the results for the IC50 in experiment [1] and in experiment [2] were 0.618 µM and 0.0223 µM, respectively.
